Where two headings read alike, the source gives them in different places.
What was measured:
[1] = tested on: Chenopodium album (CHEAL), common lambsquarters; test: Postemergence herbicide evaluation, growth of Chenopodium album (CHEAL); assay type: in vivo; details: Chenopodium album, post-emergence, read-out: Ave. CHEAL
[2] = tested on: weeds (ABUTH, AMATA, AMBEL, CHEAL, ERICA); test: Postemergence herbicide evaluation, overall average % weed control across ABUTH, AMATA, AMBEL, CHEAL, ERICA; assay type: in vivo; details: post-emergence, average over the five weeds, read-out: Overall Ave % Weed Control; for pest or weed control at 280 g/ha: 280 g ae/ha; for pest or weed control at 560 g/ha: 560 g ae/ha
[3] = Volatility of compounds measured by thermogravimetric analysis (TGA); assay type: physicochemical
[4] = tested on: Amaranthus rudis (AMATA), tall water hemp; test: Postemergence herbicide evaluation, growth of Amaranthus rudis (AMATA); assay type: in vivo; details: Amaranthus tuberculatus, post-emergence, read-out: Ave. AMATA
[5] = tested on: Abutilon theophrasti (ABUTH), velvetleaf; test: Postemergence herbicide evaluation, growth of Abutilon theophrasti (ABUTH); assay type: in vivo; details: Abutilon theophrasti, post-emergence, read-out: AVE. ABUTH
[6] = tested on: glyphosate resistant Conyza canadensis (L.) (ERICA), horseweed; test: Postemergence herbicide evaluation, growth of Conyza canadensis (ERICA); assay type: in vivo; details: Erigeron canadensis, post-emergence, read-out: Ave. ERICA
[7] = tested on: Ambrosia artemisiifolia (AMBEL), common ragweed; test: Postemergence herbicide evaluation, growth of Ambrosia artemisiifolia (AMBEL); assay type: in vivo; details: Ambrosia artemisiifolia, post-emergence, read-out: AVE. AMBEL
[8] = 168 h, 280 g ae/ha, 7 DAA, percent reduction in plant size relative to untreated control
[9] = 168 h, 560 g ae/ha, 7 DAA, percent reduction in plant size relative to untreated control
[10] = 336 h, 280 g ae/ha, 14 DAA, percent reduction in plant size relative to untreated control
[11] = 336 h, 560 g ae/ha, 14 DAA, percent reduction in plant size relative to untreated control
[12] = 504 h, 280 g ae/ha, 21 DAA, percent reduction in plant size relative to untreated control
[13] = 504 h, 560 g ae/ha, 21 DAA, percent reduction in plant size relative to untreated control

Cn1c(O)c(C(=O)COc2ccc(Cl)cc2Cl)c2ccccc21 [Compound C1, 2-(2,4-Dichlorophenoxy)-1-(2-hydroxy-1-methyl-1H-indol-3-yl)ethanone]
pest or weed control at 280 g/ha [1, 8]: 68% | pest or weed control at 560 g/ha [1, 9]: 0% | pest or weed control at 280 g/ha [1, 10]: 78% | pest or weed control at 560 g/ha [1, 11]: 0% | pest or weed control at 280 g/ha [1, 12]: 77% | pest or weed control at 560 g/ha [1, 13]: 0% | pest or weed control at 280 g/ha ([2]; 168 h, 7 DAA): 61% | pest or weed control at 560 g/ha ([2]; 168 h, 7 DAA): 0% | pest or weed control at 280 g/ha ([2]; 336 h, 14 DAA): 72% | pest or weed control at 560 g/ha ([2]; 336 h, 14 DAA): 0% | pest or weed control at 280 g/ha ([2]; 504 h, 21 DAA): 72% | pest or weed control at 560 g/ha ([2]; 504 h, 21 DAA): 0% | TGA Data (rate of weight loss, volatility) [3]: 0.7 µg/min | pest or weed control at 280 g/ha [4, 8]: 63% | pest or weed control at 560 g/ha [4, 9]: 0% | pest or weed control at 280 g/ha [4, 10]: 70% | pest or weed control at 560 g/ha [4, 11]: 0% | pest or weed control at 280 g/ha [4, 12]: 68% | pest or weed control at 560 g/ha [4, 13]: 0% | pest or weed control at 280 g/ha [5, 8]: 68% | pest or weed control at 560 g/ha [5, 9]: 0% | pest or weed control at 280 g/ha [5, 10]: 63% | pest or weed control at 560 g/ha [5, 11]: 0% | pest or weed control at 280 g/ha [5, 12]: 63% | pest or weed control at 560 g/ha [5, 13]: 0% | pest or weed control at 280 g/ha [6, 8]: 60% | pest or weed control at 560 g/ha [6, 9]: 0% | pest or weed control at 280 g/ha [6, 10]: 85% | pest or weed control at 560 g/ha [6, 11]: 0% | pest or weed control at 280 g/ha [6, 12]: 90% | pest or weed control at 560 g/ha [6, 13]: 0% | pest or weed control at 280 g/ha [7, 8]: 48% | pest or weed control at 560 g/ha [7, 9]: 0% | pest or weed control at 280 g/ha [7, 10]: 65% | pest or weed control at 560 g/ha [7, 11]: 0% | pest or weed control at 280 g/ha [7, 12]: 65% | pest or weed control at 560 g/ha [7, 13]: 0%

O=C(COc1ccc(Cl)cc1Cl)n1cnc2ccccc21 [Compound D4, 1-(1H-Benzo[d]imidazol-1-yl)-2-(2,4-dichlorophenoxy)ethanone]
pest or weed control at 280 g/ha ([1]; 168 h): 68% | pest or weed control at 560 g/ha ([1]; 168 h): 65% | pest or weed control at 280 g/ha ([1]; 336 h): 75% | pest or weed control at 560 g/ha ([1]; 336 h): 85% | pest or weed control at 280 g/ha ([1]; 504 h): 83% | pest or weed control at 560 g/ha ([1]; 504 h): 93% | pest or weed control at 280 g/ha ([2]; 168 h, 7 DAA): 72% | pest or weed control at 560 g/ha ([2]; 168 h, 7 DAA): 76% | pest or weed control at 280 g/ha ([2]; 336 h, 14 DAA): 83% | pest or weed control at 560 g/ha ([2]; 336 h, 14 DAA): 93% | pest or weed control at 280 g/ha ([2]; 504 h, 21 DAA): 86% | pest or weed control at 560 g/ha ([2]; 504 h, 21 DAA): 97% | TGA Data (rate of weight loss, volatility) [3]: 0.2 µg/min | pest or weed control at 280 g/ha ([4]; 168 h): 75% | pest or weed control at 560 g/ha ([4]; 168 h): 83% | pest or weed control at 280 g/ha ([4]; 336 h): 75% | pest or weed control at 560 g/ha ([4]; 336 h): 97% | pest or weed control at 280 g/ha ([4]; 504 h): 75% | pest or weed control at 560 g/ha ([4]; 504 h): 95% | pest or weed control at 280 g/ha ([5]; 168 h): 85% | pest or weed control at 560 g/ha ([5]; 168 h): 93% | pest or weed control at 280 g/ha ([5]; 336 h): 95% | pest or weed control at 560 g/ha ([5]; 336 h): 96% | pest or weed control at 280 g/ha ([5]; 504 h): 98% | pest or weed control at 560 g/ha ([5]; 504 h): 98% | pest or weed control at 280 g/ha ([6]; 168 h): 70% | pest or weed control at 560 g/ha ([6]; 168 h): 70% | pest or weed control at 280 g/ha ([6]; 336 h): 83% | pest or weed control at 560 g/ha ([6]; 336 h): 94% | pest or weed control at 280 g/ha ([6]; 504 h): 88% | pest or weed control at 560 g/ha ([6]; 504 h): 99% | pest or weed control at 280 g/ha ([7]; 168 h): 60% | pest or weed control at 560 g/ha ([7]; 168 h): 68% | pest or weed control at 280 g/ha ([7]; 336 h): 85% | pest or weed control at 560 g/ha ([7]; 336 h): 95% | pest or weed control at 280 g/ha ([7]; 504 h): 85% | pest or weed control at 560 g/ha ([7]; 504 h): 98%

O=C(COc1ccc(Cl)cc1Cl)Nc1ccc(Cl)cc1 [Compound D6, N-(4-Chlorophenyl)-2-(2,4-dichlorophenoxy)acetamide]
pest or weed control at 280 g/ha ([1]; 168 h): 60% | pest or weed control at 560 g/ha ([1]; 168 h): 73% | pest or weed control at 280 g/ha ([1]; 336 h): 65% | pest or weed control at 560 g/ha ([1]; 336 h): 75% | pest or weed control at 280 g/ha ([1]; 504 h): 68% | pest or weed control at 560 g/ha ([1]; 504 h): 68% | pest or weed control at 280 g/ha ([2]; 168 h, 7 DAA): 60% | pest or weed control at 560 g/ha ([2]; 168 h, 7 DAA): 63% | pest or weed control at 280 g/ha ([2]; 336 h, 14 DAA): 68% | pest or weed control at 560 g/ha ([2]; 336 h, 14 DAA): 70% | pest or weed control at 280 g/ha ([2]; 504 h, 21 DAA): 71% | pest or weed control at 560 g/ha ([2]; 504 h, 21 DAA): 65% | TGA Data (rate of weight loss, volatility) [3]: 0.02 µg/min | pest or weed control at 280 g/ha ([4]; 168 h): 68% | pest or weed control at 560 g/ha ([4]; 168 h): 63% | pest or weed control at 280 g/ha ([4]; 336 h): 84% | pest or weed control at 560 g/ha ([4]; 336 h): 70% | pest or weed control at 280 g/ha ([4]; 504 h): 80% | pest or weed control at 560 g/ha ([4]; 504 h): 65% | pest or weed control at 280 g/ha ([5]; 168 h): 50% | pest or weed control at 560 g/ha ([5]; 168 h): 60% | pest or weed control at 280 g/ha ([5]; 336 h): 33% | pest or weed control at 560 g/ha ([5]; 336 h): 58% | pest or weed control at 280 g/ha ([5]; 504 h): 35% | pest or weed control at 560 g/ha ([5]; 504 h): 53% | pest or weed control at 280 g/ha ([6]; 168 h): 65% | pest or weed control at 560 g/ha ([6]; 168 h): 60% | pest or weed control at 280 g/ha ([6]; 336 h): 83% | pest or weed control at 560 g/ha ([6]; 336 h): 78% | pest or weed control at 280 g/ha ([6]; 504 h): 83% | pest or weed control at 560 g/ha ([6]; 504 h): 75% | pest or weed control at 280 g/ha ([7]; 168 h): 58% | pest or weed control at 560 g/ha ([7]; 168 h): 58% | pest or weed control at 280 g/ha ([7]; 336 h): 78% | pest or weed control at 560 g/ha ([7]; 336 h): 68% | pest or weed control at 280 g/ha ([7]; 504 h): 88% | pest or weed control at 560 g/ha ([7]; 504 h): 63%
